Patent US11723365B2, “Method for controlling PPO resistant weeds” (BASF SE, priority 2016, dated 2023)

Key:
Assay type in all cases: in vivo
[1] = test system: Amaranthus tamariscinus (common waterhemp, AMATA), sensitive biotype (w.1); assay: greenhouse experiment, weed control, sensitive common waterhemp (w.1)
Description: (§1) The culture containers used were plastic flowerpots containing loamy sand with approximately 3.0% of humus as the substrate. The seeds of the test plants were sown separately for each species and/or resistant biotype. For the pre-emergence treatment, the active ingredients, which had been suspended or emulsified in water, were applied directly after sowing by means of finely distributing nozzles. The containers were irrigated gently to promote germination and growth and subsequently covered with transparent plastic hoods until the plants had rooted. This cover caused uniform germination of the test plants, unless this had been impaired by the active ingredients. For the post-emergence treatment, the test plants were first grown to a height of 3 to 15 cm, depending on the plant habit, and only then treated with the active ingredients which had been suspended or emulsified in water. For this purpose, the test plants were either sown directly and grown in the same containers, or they were first grown separately as seedlings and transplanted into the test containers a few days prior to treatment. Depending on the species, the plants were kept at 10-25° C. or 20-35° C., respectively. The test period extended over 2 to 4 weeks. During this time, the plants were tended, and their response to the individual treatments was evaluated. The evaluation was carried out by using a scale from 0 to 100. 100 means no emergence of the plants or complete destruction of at least the above-ground parts, and 0 means no damage, or normal course of growth.
(§2) The plants used in a first greenhouse experiment were of the following species and biotype: […]

[2] = test system: Amaranthus tamariscinus (common waterhemp, AMATA), PPO resistant biotype 1 (w.2); assay: greenhouse experiment, weed control, PPO resistant biotype 1 (w.2); settings: for activity on sensitive and resistant weeds (in words): summary of table 2: sensitive (w.1) and resistant weeds (w.2, w.3); for Weed control (%) w.2: scale 0 to 100
Description: as §1, §2

[3] = test system: Amaranthus tamariscinus (common waterhemp, AMATA), PPO resistant biotype 3 containing the ΔG210 mutation (w.5); assay: another greenhouse experiment, weed control, PPO resistant biotype 3 (w.5)
Description: as §1, with “100 means no emergence of the plants or complete destruction of at least the above-ground parts, and 0 means no damage, or normal course of growth.” left out

[4] = test system: Amaranthus tamariscinus (common waterhemp, AMATA), PPO resistant biotype 4 containing the ΔG210 mutation (w.6); assay: another greenhouse experiment, weed control, PPO resistant biotype 4 (w.6); settings: use rate 4 g/ha; scale 0 to 100
Description: as §1, with “100 means no emergence of the plants or complete destruction of at least the above-ground parts, and 0 means no damage, or normal course of growth.” left out

[5] = test system: Amaranthus tamariscinus (common waterhemp, AMATA), sensitive biotype (w.4); assay: another greenhouse experiment, weed control, sensitive common waterhemp (w.4); settings: use rate 4 g/ha; scale 0 to 100
Description: as §1, with “100 means no emergence of the plants or complete destruction of at least the above-ground parts, and 0 means no damage, or normal course of growth.” left out

[6] = test system: Amaranthus tamariscinus (common waterhemp, AMATA), PPO resistant biotype 2 (w.3); assay: greenhouse experiment, weed control, PPO resistant biotype 2 (w.3); settings: scale 0 to 100
Description: as §1, §2

[7] = use rate 2 g/ha, scale 0 to 100
[8] = use rate 4 g/ha, scale 0 to 100 (100 = complete destruction, 0 = no damage)

SMILES	Weed control (%) w.1 [1, 7] [%]	Weed control (%) w.1 [1, 8] [%]	activity on sensitive and resistant weeds (in words) [2]	Weed control (%) w.2 ([2]; use rate 2 g/ha) [%]	Weed control (%) w.2 ([2]; use rate 4 g/ha) [%]	activity on sensitive and resistant weeds (in words) ([3]; summary of table 3: sensitive (w.4) and resistant weeds (w.5, w.6) containing the ΔG210 mutation)	Weed control (%) w.5 ([3]; use rate 4 g/ha, scale 0 to 100) [%]	Weed control (%) w.6 [4] [%]	Weed control (%) w.4 [5] [%]	Weed control (%) w.3 ([6]; use rate 2 g/ha) [%]	Weed control (%) w.3 ([6]; use rate 4 g/ha) [%]
COC(=O)CCNC(=O)C(C)Sc1cc(-n2c(=O)cc(C(F)(F)F)n(C)c2=O)c(F)cc1Cl (stereo not drawn) [(I).1, tiafenacil]	90	99	very good activity on both sensitive (w.1) and resistant weeds (w.2, w.3)	83	91	very good activity on both sensitive (w.4) and resistant weeds (w.5, w.6)	95	88	92	78	85
C#CCOc1cc(-n2nc3n(c2=O)CCCC3)c(Cl)cc1Cl [azafenidin, reference compound]	95	98	much weaker control of resistant in comparison to sensitive biotypes	67	73					70	72
